# Measurements taken from PMC13372822 (The EMBO Journal, 2026).
# Positions count from the first letter of the chain named.
# What was measured:
# Assay type in all cases: cell-based
# FFAR3 = target: T1, FFAR3 (Homo sapiens, UniProt O14843); assay: Calcium mobilization assay, FFAR3 in HEK293 stably expressing Gα16; settings: in words; related receptor
# T1 construct: expressed in transfected cells; host or cells: HEK293 stably expressing Gα16
# T1 sequence (O14843 1-346): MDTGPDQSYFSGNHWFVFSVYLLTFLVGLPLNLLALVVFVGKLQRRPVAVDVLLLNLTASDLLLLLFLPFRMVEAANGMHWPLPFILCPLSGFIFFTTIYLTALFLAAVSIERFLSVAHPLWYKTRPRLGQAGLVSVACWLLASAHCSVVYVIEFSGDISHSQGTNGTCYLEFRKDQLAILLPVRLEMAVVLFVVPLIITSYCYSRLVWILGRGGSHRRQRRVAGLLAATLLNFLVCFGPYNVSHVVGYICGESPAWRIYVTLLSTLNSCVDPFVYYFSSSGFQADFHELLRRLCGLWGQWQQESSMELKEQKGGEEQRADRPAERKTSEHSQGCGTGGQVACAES
# Description: (§2) HEK293 cells were obtained from ATCC (Manassas, VA, USA) and cultured in DMEM supplemented with 10% (v/v) FBS, 100 mg/L penicillin, and 100 mg/L streptomycin in 5% CO2 at 37 °C. For transient transfection, ~2.5 × 10^6 cells were mixed with 2 µg plasmids in 200 µL transfection buffer, and electroporation was carried out with a Scientz-2C electroporation apparatus (Scientz Biotech, Ningbo, China). The experiments were carried out 24 h after transfection. HEK293 cell lines stably expressing Gα16 were constructed by our laboratory.
# (§3) For OXGR1, plasmids were transfected into HEK293 (other receptors were transfected into HEK293 stably expressing Gα16) and seeded at a density of 4 × 10^4 per well into 96-well culture plates and incubated for 24 h at 37 °C in 5% CO2. The next day, Cells were incubated with 2 μM/L Fluo-4 AM in HBSS supplemented with 5.6 mM/L D-glucose and 250 μM/L sulfinpyrazone at 37 °C for 45 min. […] Three independent measurements were repeated, i.e., three different transfections, with three technical replicates performed for each experiment. EC50 and Emax values for each curve were calculated by Prism 8.0 software (GraphPad Software).
# OXGR1 [1] = target: T2, OXGR1 (Homo sapiens, UniProt Q96P68); assay: cAMP assay, Gi pathway (OXGR1-Gi-cAMP Assay); parameters: The full-length human OXGR1 and mutations were fused after the HA signal peptide and Flag tag; HA signal peptide (N); Flag (N); expressed in transfected cells; host or cells: HEK293 (pcDNA3.0, transient electroporation); settings: OXGR1 WT
# Description: (§1) In brief, cells expressing OXGR1 were seeded in a plate at a density of 1 × 10^6 cells/well and cultured overnight. After 24 h culture, cells were harvested and re-suspended in DMEM containing 500 µM IBMX at a density of 2 × 10^5 cells/mL. Then, cells were plated onto 384-well assay plates at a density of 1000 cells/5 µL/well. Another 5 µL buffer containing compounds at various concentrations was added to the cells, and the incubation lasted for 30 min at 37 °C. Intracellular cAMP level was tested by a LANCE Ultra cAMP kit (PerkinElmer, TRF0264) and EnVision multiplate reader according to the manufacturer’s instructions.
# [2] = target: T3, SUCR1 mutants (variant named in the endpoint) (Homo sapiens, UniProt Q9BXA5, F285A/L102F); assay: Calcium mobilization assay, SUCR1 mutants in HEK293 stably expressing Gα16;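 for Emax: percent of the maximal response to succinate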
# T3 construct: The full-length human SUCR1 and mutations were fused after the HA signal peptide and Flag tag; HA signal peptide (N); Flag (N); expressed in transfected cells; host or cells: HEK293 stably expressing Gα16 (pcDNA6.0, transient electroporation)
# T3 sequence (Q9BXA5 1-334 L102F/F285A): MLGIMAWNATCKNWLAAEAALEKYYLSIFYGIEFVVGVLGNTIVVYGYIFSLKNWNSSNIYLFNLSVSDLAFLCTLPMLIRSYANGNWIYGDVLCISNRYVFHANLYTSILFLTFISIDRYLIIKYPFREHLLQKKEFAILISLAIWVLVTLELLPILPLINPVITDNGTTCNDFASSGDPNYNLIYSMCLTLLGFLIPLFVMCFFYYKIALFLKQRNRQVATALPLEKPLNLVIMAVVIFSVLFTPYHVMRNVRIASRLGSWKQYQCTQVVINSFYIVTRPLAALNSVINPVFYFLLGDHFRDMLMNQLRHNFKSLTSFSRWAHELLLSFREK
# Description: (§4) The full-length human SUCR1 and mutations were fused after the HA signal peptide and Flag tag. The constructs were cloned into pcDNA6.0 vector for HEK293 system.
# as §2, §3
# [3] = target: T4, SUCR1 mutants (variant named in the endpoint) (Homo sapiens, UniProt Q9BXA5, I157M); assay: as above
# T4 construct: The full-length human SUCR1 and mutations were fused after the HA signal peptide and Flag tag; HA signal peptide (N); Flag (N); expressed in transfected cells; host or cells: HEK293 stably expressing Gα16 (pcDNA6.0, transient electroporation)
# T4 sequence (Q9BXA5 1-334 I157M): T3 sequence (Q9BXA5 1-334 L102F/F285A) with F102L, I157M, A285F
# Description: as §4, §2, §3
# SUCR1 = target: T5, SUCR1 (Homo sapiens, UniProt Q9BXA5); assay: Calcium mobilization assay, wild-type SUCR1 in HEK293 stably expressing Gα16; settings: for activation of SUCR1: in words;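 for Emax: percent of the maximal response to succinate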
# T5 construct: The full-length human SUCR1 and mutations were fused after the HA signal peptide and Flag tag; HA signal peptide (N); Flag (N); expressed in transfected cells; host or cells: HEK293 stably expressing Gα16 (pcDNA6.0, transient electroporation)
# T5 sequence (Q9BXA5 1-334): T3 sequence (Q9BXA5 1-334 L102F/F285A) with F102L, A285F
# Description: as §4, §2, §3
# OXGR1 [4] = target: T2, OXGR1; assay: cAMP assay, Gs pathway (OXGR1-Gs-cAMP-Assay); parameters: The full-length human OXGR1 and mutations were fused after the HA signal peptide and Flag tag; HA signal peptide (N); Flag (N); expressed in transfected cells; host or cells: HEK293 (pcDNA3.0, transient electroporation); settings: OXGR1 WT
# Description: as §1
# [5] = target: T6, SUCR1 mutants (variant named in the endpoint) (Homo sapiens, UniProt Q9BXA5, Y248F); assay: Calcium mobilization assay, SUCR1 mutants in HEK293 stably expressing Gα16;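 for Emax: percent of the maximal response to succinate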
# T6 construct: The full-length human SUCR1 and mutations were fused after the HA signal peptide and Flag tag; HA signal peptide (N); Flag (N); expressed in transfected cells; host or cells: HEK293 stably expressing Gα16 (pcDNA6.0, transient electroporation)
# T6 sequence (Q9BXA5 1-334 Y248F): T3 sequence (Q9BXA5 1-334 L102F/F285A) with F102L, Y248F, A285F
# Description: as §4, §2, §3
SMILES,activation of FFAR3 (FFAR3),activation of Gi signaling (OXGR1 [1]),Emax ([2]; HEK293),Emax ([3]; HEK293),Emax (SUCR1; HEK293),activation of SUCR1 (SUCR1),activation of Gs signaling (OXGR1 [4]),"Emax ([3]; HEK293, SUCR1 I157M, Emax relative to the SUC)","Emax ([5]; HEK293, SUCR1 Y248F, Emax relative to the SUC)",EC50 ([2]; SUCR1 F285A-L102F),EC50 ([5]; SUCR1 Y248F)
"O=C(O)CCC(=O)C(=O)O [AKG, α-ketoglutarate]",no cross-reactivity,no detectable activation,5.5 ± 1%,0.43 ± 0.8%,3.5 ± 3%,no cross-reactivity,no detectable activation,,,,
"C=C(CC(=O)O)C(=O)O [ITA, itaconate]",no detectable activation,no detectable activation,,,,only minimal activation,no detectable activation,-0.44 ± 1%,15 ± 2%,,
"O=C(O)CCC(=O)O [SUC, succinate]",,,,,,,,,,460 ± 80 µM,810 ± 90 µM
